Data as given in publication PMC10375476, “Feedback Inhibition of Bacterial Nucleotidyltransferases by Rare Nucleotide L-Sugars Restricts Substrate Promiscuity” (Journal of the American Chemical Society, 2023).

What was measured:
[1] = molecular target: Pa RmlA (Pseudomonas aeruginosa, UniProt Q9HU22); assay: inhibition of reconstituted RmlA activity; format: biochemical
[2] = molecular target: E. coli RmlA (Escherichia coli, UniProt P37744); assay: inhibition of reconstituted RmlA activity; format: biochemical
[3] = molecular target: Mtb RmlA (Mycobacterium tuberculosis, UniProt P9WH13); assay: biochemical
[4] = molecular target: SALTY RmlA (Salmonella enterica, UniProt P26393); assay: inhibition of reconstituted RmlA activity; format: biochemical
SALTY RmlA, sequence (P26393 whole entry): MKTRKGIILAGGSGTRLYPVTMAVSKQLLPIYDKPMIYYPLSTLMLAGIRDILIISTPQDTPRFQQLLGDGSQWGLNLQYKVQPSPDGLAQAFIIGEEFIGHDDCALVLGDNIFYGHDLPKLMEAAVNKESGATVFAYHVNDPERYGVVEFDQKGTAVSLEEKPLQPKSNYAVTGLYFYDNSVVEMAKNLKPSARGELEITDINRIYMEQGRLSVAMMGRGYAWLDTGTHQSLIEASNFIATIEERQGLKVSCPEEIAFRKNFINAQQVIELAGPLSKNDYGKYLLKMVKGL

Mtb RmlA, sequence (P9WH13 whole entry): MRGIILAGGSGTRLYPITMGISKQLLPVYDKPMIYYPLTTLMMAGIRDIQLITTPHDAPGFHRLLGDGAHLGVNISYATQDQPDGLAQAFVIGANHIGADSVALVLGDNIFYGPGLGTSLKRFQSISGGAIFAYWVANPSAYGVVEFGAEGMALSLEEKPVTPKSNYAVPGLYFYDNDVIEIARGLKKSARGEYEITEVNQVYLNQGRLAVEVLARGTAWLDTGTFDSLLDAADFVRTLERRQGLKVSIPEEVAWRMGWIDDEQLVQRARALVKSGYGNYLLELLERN
Pa RmlA, sequence (Q9HU22 1-293): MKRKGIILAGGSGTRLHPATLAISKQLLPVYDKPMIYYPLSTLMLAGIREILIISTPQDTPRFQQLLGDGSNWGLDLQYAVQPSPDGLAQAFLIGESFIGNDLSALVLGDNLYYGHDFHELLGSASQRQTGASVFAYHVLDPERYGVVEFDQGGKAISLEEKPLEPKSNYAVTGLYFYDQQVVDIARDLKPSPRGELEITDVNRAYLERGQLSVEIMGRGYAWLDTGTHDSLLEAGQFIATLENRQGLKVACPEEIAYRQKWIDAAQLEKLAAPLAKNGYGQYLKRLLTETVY
E. coli RmlA, sequence (P37744 whole entry): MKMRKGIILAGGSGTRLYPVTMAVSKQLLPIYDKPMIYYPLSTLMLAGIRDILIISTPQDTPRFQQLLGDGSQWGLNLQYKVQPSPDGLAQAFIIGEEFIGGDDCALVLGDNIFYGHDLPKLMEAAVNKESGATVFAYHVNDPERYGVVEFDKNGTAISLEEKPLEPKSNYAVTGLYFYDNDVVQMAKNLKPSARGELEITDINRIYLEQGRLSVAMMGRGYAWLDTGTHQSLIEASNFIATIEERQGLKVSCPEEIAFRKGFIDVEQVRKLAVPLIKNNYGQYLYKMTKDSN

SMILES | IC50 [1] | IC50 [2] | IC50 [3] | IC50 [4]
Cc1cn([C@H]2C[C@H](O)[C@@H](COP(=O)(O)OP(=O)(O)O[C@H]3O[C@@H](C)[C@H](O)[C@@H](O)[C@H]3O)O2)c(=O)[nH]c1=O [compound 1, dTDP-β-L-Rha] | 25.1 µM | 137 µM | 65.7 µM | 109 µM
Cc1cn([C@H]2C[C@H](O)[C@@H](COP(=O)(O)OP(=O)(O)O[C@H]3O[C@@H](CO)[C@H](O)[C@@H](O)[C@H]3O)O2)c(=O)[nH]c1=O [compound 11, dTDP-β-L-Man] | 376 µM | > 500 µM | 458 µM | > 500 µM
Cc1cn([C@H]2C[C@H](O)[C@@H](COP(=O)(O)OP(=O)(O)O[C@@H]3O[C@@H](C)[C@H](O)[C@@H](O)[C@H]3O)O2)c(=O)[nH]c1=O [compound 10, dTDP-α-L-Rha (α-anomer 10)] | 250 µM | > 500 µM | 500 µM | > 500 µM
Cc1cn([C@H]2C[C@H](O)[C@@H](COP(=O)(O)OP(=O)(O)O[C@H]3O[C@@H](C)[C@@H](O)[C@@H](O)[C@H]3O)O2)c(=O)[nH]c1=O [compound 2, dTDP-β-L-6dTal] | 312 µM |  |  | 
C[C@@H]1O[C@H](OP(=O)(O)OP(=O)(O)OC[C@H]2O[C@@H](n3ccc(=O)[nH]c3=O)[C@H](O)[C@@H]2O)[C@H](O)[C@H](O)[C@H]1O [compound 12, UDP-β-L-Rha] | 362 µM |  |  | 
